# From patent US9650379B2 (CHONG KUN DANG PHARMACEUTICAL CORP., priority 2013, dated 2017)
# Assays:
# [1] = system: CTLA4 expression in iTreg (CD4+CD25+Foxp3+) cells; test: CTLA4 assay in induced regulatory T cells; assay type: cell-based, C57BL/6 mouse; details: 6 days incubation
# Text: In order to evaluate the effect of the compounds of the present invention on the expression of CTLA4, FOXP3+ induced regulatory T cells were induced from effector T cells (CD4+CD25−) isolated from the spleen of C57BL/6 mouse. Specifically, 6-week-old C57BL/6 mouse were purchased, and spleens were isolated therefrom, and separated into single cells by treatment with collagenase D. Effector T cells (CD4+CD25−, Teff) were separated from the mouse spleen cells using a CD4+CD25 regulatory T cell isolation kit (Miltenyi Biotec). Teff were plated on a 48-well plate at a density of 5×10^5 cells/well, and activated by adding a […] mAb-conjugated magnetic bead (T cell Activation/Expansion kit, Miltenyi Biotec) thereto. The activated cells were treated with TGF-β2 and each compound, and after 6 days, the cells were subjected to cell surface staining with CD4-PECy7 and CD25-APC (eBioscience) and to intracellular staining with FOXP3-Alexafluor488 and CTLA4-PE (eBioscience). Then, a change in the expression of CTLA4 in the induced regulatory T cells (iTreg) was analyzed by FACS Canto II (BD bioscience).
# [2] = system: tubulin acetylation (HDAC6) in RPMI8226 cells; test: Western blot analysis of tubulin acetylation in cells; assay type: cell-based; details: 24 hours, Western blot (FIG. 1)
# Procedure: Specifically, RPMI8226 cells were seeded into a six-well plate at a density of 1.0×10^6 cells/well, and then treated with varying concentrations of each of compounds 636 and 642. After 24 hours, protein was extracted from the cells using RIPA buffer and quantified by the Bradford method. 25 μg of the protein was dissolved to sample buffer and electrophoresed on 4-12% gradient gel, and the gel was transferred to a nitrocellulose membrane for 50 minutes. The membrane was blocked in 5% skim milk solution for 1 hour. Anti-acetyl H3 antibody (1:2,000), anti-acetyl H4 antibody (1:5,000), anti-acetyl tubulin antibody (1:5,000) and anti-β-actin antibody (1:10,000) were added to 5% skim milk, and the membrane was immersed in the skim milk and allowed to react at 4° C. for 16 hours, after which it was washed three times with 1×TBS-T for 10 minutes each washing. IgG-HRP antibody (1:5,000) was added to 5% skim milk, and the membrane was immersed in the skim milk and allowed to react at room temperature for 40 minutes, after which it was washed three times with 1×TBS-T for 10 minutes each washing. Detection was performed by LAS 3000 using ECL solution.
# effector T cells (Teff) = test: Viability (death) of Teff cells; assay type: cell-based, C57BL/6 mouse; details: treated for 24 hours
# [3] = system: proliferation of effector T cells (Teff) co-cultured with Treg; test: Regulatory T cell suppression function, Treg/Teff co-culture; assay type: cell-based, C57BL/6 mouse; details: Teff:Treg 2:1 co-culture, 3 days; vehicle group 27% suppression
# Procedure: The effect of compound 636 on the proliferation of effector T cells in the co-culture condition of the regulatory T cells (Treg) and effector T cells (Teff) isolated from the spleen of C57BL/6 mouse was evaluated.
# Specifically, 6-week-old C57BL/6 mouse were purchased, and spleens were isolated therefrom, and separated into single cells by treatment with collagenase D. Teff (CD4^+CD25^−) and Treg (CD4^+CD25^high) were isolated from the mouse spleen cells using a CD4^+CD25^high regulatory T cell isolation kit (Miltenyi Biotec). The Teff were stained with 5 μM Cell Proliferation Dye eFluor® 670 (eBioscience) at 37° C. under a light-shielded condition for 10 minutes, and incubated in cold complete media on ice for 5 minutes to stop the staining reaction, and then washed three times with complete media. The eFluor-stained effector T cells and the Treg were co-cultured on a U-bottom plate at a ratio of 2:1, and activated by adding a CD3εCD28 mAb-conjugated magnetic bead (T cell Activation/Expansion kit, Miltenyi Biotec) thereto. The activated cells were treated with compound 636, and after 3 days, the proliferation of the Teff was evaluated by analyzing the dilution pattern of eFluor® 670 with FACS Canto II (BD bioscience).
# HDAC6 human recombinant = biological target: T1, HDAC6 human recombinant (Homo sapiens, UniProt Q9UBN7); test: Inhibition of HDAC6 activity (fluorimetric assay); assay type: biochemical; details: test concentrations 0.1, 1, 10, 100 and 1000 nM; 37° C., 60 minutes
# T1 construct: purchased Calbiochem 382180
# T1 sequence (Q9UBN7 1-1215): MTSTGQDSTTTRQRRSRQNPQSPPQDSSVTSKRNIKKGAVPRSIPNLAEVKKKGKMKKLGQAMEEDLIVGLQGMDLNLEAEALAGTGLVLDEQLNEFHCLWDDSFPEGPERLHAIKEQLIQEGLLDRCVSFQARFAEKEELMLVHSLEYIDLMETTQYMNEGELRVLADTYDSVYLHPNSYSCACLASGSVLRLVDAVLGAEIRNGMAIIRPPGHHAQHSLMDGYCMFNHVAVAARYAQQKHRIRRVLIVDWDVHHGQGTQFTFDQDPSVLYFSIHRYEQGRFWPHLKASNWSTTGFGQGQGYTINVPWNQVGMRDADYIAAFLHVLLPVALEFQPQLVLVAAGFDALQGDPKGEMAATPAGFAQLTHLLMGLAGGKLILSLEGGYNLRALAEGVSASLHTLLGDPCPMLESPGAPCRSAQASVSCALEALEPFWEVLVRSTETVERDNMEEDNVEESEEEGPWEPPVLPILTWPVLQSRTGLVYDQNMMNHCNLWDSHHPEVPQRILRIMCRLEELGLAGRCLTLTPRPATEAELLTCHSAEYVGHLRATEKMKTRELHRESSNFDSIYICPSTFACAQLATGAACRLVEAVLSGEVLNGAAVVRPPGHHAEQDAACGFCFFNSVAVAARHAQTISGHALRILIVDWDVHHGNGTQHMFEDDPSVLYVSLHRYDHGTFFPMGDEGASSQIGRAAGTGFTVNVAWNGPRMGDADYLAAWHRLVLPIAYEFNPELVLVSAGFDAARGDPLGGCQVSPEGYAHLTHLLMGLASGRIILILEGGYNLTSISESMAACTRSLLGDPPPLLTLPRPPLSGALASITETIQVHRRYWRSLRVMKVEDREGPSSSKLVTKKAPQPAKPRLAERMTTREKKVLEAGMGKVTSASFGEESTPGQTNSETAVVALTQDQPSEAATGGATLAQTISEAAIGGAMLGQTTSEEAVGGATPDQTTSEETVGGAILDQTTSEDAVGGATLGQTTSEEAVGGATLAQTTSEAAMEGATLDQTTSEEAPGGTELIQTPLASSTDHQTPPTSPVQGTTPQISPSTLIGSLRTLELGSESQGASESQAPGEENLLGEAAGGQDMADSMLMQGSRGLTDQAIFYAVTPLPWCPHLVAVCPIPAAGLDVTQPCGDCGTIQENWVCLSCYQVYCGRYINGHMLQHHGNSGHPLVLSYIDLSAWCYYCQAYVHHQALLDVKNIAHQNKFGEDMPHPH
# In short: (§1)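 HDAC1 tested with the kit assay mixture at 100, 1000 and 10000 nM compound; recombinant human HDAC6 at 0.1, 1, 10, 100 and 1000 nM. Reaction ran 60 min at 37° C, then developer was added for 30 min at 37° C and fluorescence quantified.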
# HDAC1 = biological target: T2, HDAC1 (Homo sapiens, UniProt Q13547); test: Inhibition of HDAC1 activity (HDAC1 fluorimetric drug discovery assay kit); assay type: biochemical; details: test concentrations 100, 1000 and 10000 nM; 37° C., 60 minutes
# T2 construct: purchased Enzolifesciences BML-AK511
# T2 sequence (Q13547 whole entry): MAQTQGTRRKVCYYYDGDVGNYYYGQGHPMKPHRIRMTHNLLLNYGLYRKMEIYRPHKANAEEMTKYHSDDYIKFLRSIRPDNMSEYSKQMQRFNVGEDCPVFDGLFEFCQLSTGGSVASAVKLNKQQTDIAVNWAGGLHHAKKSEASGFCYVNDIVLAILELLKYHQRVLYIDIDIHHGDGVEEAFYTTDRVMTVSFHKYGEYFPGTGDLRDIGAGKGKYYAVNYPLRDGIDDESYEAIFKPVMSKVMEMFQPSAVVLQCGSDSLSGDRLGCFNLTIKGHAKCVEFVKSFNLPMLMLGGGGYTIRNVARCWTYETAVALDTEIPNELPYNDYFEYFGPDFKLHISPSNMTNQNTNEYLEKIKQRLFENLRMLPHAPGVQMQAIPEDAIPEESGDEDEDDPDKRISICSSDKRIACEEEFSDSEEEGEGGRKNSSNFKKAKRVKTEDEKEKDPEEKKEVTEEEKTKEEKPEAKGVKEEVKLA
# In short: as §1
IC50 (HDAC6 human recombinant) [nM],IC50 (HDAC1) [nM],Structure (SMILES),increase of the expression of CTLA4 in the iTreg (CD4+CD25+Foxp3+) population ([1]; concentrations of 100 and 500 nM),compound concentration at which tubulin acetylation (HDAC6) appeared [2],viability of the Teff versus non-drug-treated group (effector T cells (Teff)),suppression ratio of Teff relative to the vehicle group [3] [times],increase of the expression of CTLA4 in the iTreg cells ([1]; concentration not stated separately) [times]
8,930,"CC(C)(F)CN1CCC(c2ccnc3c2ccn3Cc2ccc(C(=O)NO)cc2)CC1 [Compound 636, 4-((4-(1-(2-fluoro-2-methylpropyl)piperidin-4-yl)-1H-pyrrolo[2,3-b]pyridin-1-yl)methyl)-N-hydroxybenzamide]",1.5-2 times,about 300 nM,did not differ,2,
9,4310,"CC(C)(F)CN1CCN(c2ccnc3c2ccn3Cc2ccc(C(=O)NO)cc2)CC1 [Compound 642, 4-((4-(4-(2-fluoro-2-methylpropyl)piperazin-1-yl)-1H-pyrrolo[2,3-b]pyridin-1-yl)methyl)-N-hydroxybenzamide]",,about 300 nM,,,≥ 2
